Data on 5 molecules can be found in patent US20160208330A1, “IDENTIFYING MARKERS OF CALORIC RESTRICTION AND CALORIC RESTRICTION MIMETICS” (NSE Products, Inc., priority 2011, published 2016).

For the assay, the system named is genes listed in Table 6 (CR marker panel), white adipose tissue. As to the kind of experiment: Testing ingredients for mimicry of caloric restriction: feeding study, RT-qPCR of the Table 6 gene panel in white adipose tissue, fold change as percentage of the fold change in the CR group. It counts as in vivo, C57BL/6J mice. Also on record: key to Avg. CRMI: points per gene: 11-20% mimicry = 1, 21-30% = 2...; opposite effect negative. The following applies: for Avg. CRMI: CR Mimetic Index, points per gene from mimicry score plus five points for significance; for Avg. mimicry: average over significantly changed genes; for CMII: mimetic index = average mimicry (fraction of CR) x number of significantly changed genes. The source says: C57BL/6J mice were purchased from Jackson Laboratories at 6 weeks of age and maintained as described previously in Barger J L, et al. (2008) A Low Dose of Dietary Resveratrol Partially Mimics Caloric Restriction and Retards Aging Parameters in Mice. PLoS ONE 3(6): e2264 (http://dx.doi.org/10.1371/journal.pone.0002264). Briefly, mice were individually housed in shoebox cages and provided with 24 grams (˜84 kcal) of AIN-93M diet per week (7 grams on Monday and Wednesday and 10 grams on Friday). Starting at 8 weeks of age and continuing until 22 weeks of age, mice were either a) maintained on the AIN-93M diet (control group), b) fed a Calorie Restricted (CR) diet providing 63 kcal/week of a modified AIN93M from 8-16 weeks of age and then further reduced to a diet providing 49 kcal/week of a modified AIN93M from 16-22 weeks of age; or c) were assigned to an AIN93M diet supplemented with one of the following test ingredients: 1) bezafibrate at a dose of 5,000 mg/kg diet; 2) metformin at a dose of 1,909 mg/kg diet; 3) L-carnitine at a dose of 1,800 mg/kg diet; 4) blood orange extract at a dose of 18 mg/kg of body weight; 5) purple corn extract at a dose of 22 mg/kg of body weight; 6) resveratrol at a dose of 30 mg/kg of body weight; and 7) quercetin at a dose of 17.6 mg/kg of body weight. At 22 weeks of age, tissues were collected from the mice, flash-frozen in liquid nitrogen and stored at −80° C. for later analysis.
In order to screen the ingredients for their ability to mimic CR, quantitative real-time PCR (RT-qPCR) analysis was performed on RNA isolated from white adipose tissue from all groups of mice. Experimental methods and data analysis for RT-qPCR experiments have been published previously in Barger, J L et al., (2008) Short-term consumption of a resveratrol-containing nutraceutical mixture mimics gene expression of long-term caloric restriction in mouse heart, Exp. Gerontology 43(9):859 (http://dx.doi.org/10.1016/j.exger.2008.06.013). Briefly, the magnitude of change in gene expression was determined for each of the genes listed in Table 6 for the CR and treatment groups compared to the control animals. Two-tailed t-tests (assuming equal variance) were used to determine if the change in expression for individual genes was statistically significant. The magnitude of the change in expression (“fold change”) values were log2-adjusted to fit normality assumptions for statistical analyses.
CR mimicry was expressed as the fold change observed in each gene for the test group as a percentage of the fold change observed for that gene in the CR group.
The ingredients tested were based on their mimetic effect across the gene panel.
Another ranking approach was used to reflect effects across all genes. A CR Mimetic Index (CRMI) was calculated per gene for each ingredient by assigning each a number of points based on its mimicry score for each gene. Positive points were given for positive mimicry values (11 to 20%=1 point, 21 to 30%=2 points, 31 to 40%=3 points, and so on). Negative mimicry values (i.e. where the gene expression effect was opposite that observed for CR) received corresponding negative scores (i.e. −11 to −20%=−1 point, −21 to −30%=−2 points, −31 to −40%=[…], and so on). Five points were added for statistical significance of a mimicry value.
In the experimental protocol of Example 2, bezafibrate at 5,000 mg/kg diet was also compared to lower doses (100 and 500 mg/kg).
Mimetic indices were calculated for the 500 mg/kg and 100 mg/kg doses as in Example 2.
(In qPCR the cycle at which signal appears reflects the starting amount.)

The mark [1] stands for this setting: 100 mg/kg diet, white adipose tissue.
[2] abbreviates: 500 mg/kg diet, white adipose tissue.
[3] abbreviates: 5000 mg/kg diet, white adipose tissue.
Where [4] appears, read: fold change as percentage of CR fold change, white adipose tissue.
The mark [5] stands for this setting: white adipose tissue, RT-qPCR, C57BL/6J mice fed from 8 to 22 weeks of age, ingredient doses, only significantly changed genes shown.
Where [6] appears, read: white adipose tissue, Table 6 gene panel, diet supplemented from 8 to 22 weeks of age, doses (bezafibrate 5,000 mg/kg diet).

Consider `CC(C)(Oc1ccc(CCNC(=O)c2ccc(Cl)cc2)cc1)C(=O)O` [Bezafibrate, bezafibrate], for which the “Avg. CRMI” value is given as 128 and the CMII was determined as 8.3. Under setting [1], the “CR mimicry Acaca” value came out at 20%, the “CR mimicry Cd68” value is given as 58%, the “CR mimicry Gpd2” value amounted to 23% and the “CR mimicry Ifi27I2a” value was 39%. Also, under setting [2], the “CR mimicry Acaca” value is on record as 23%, the “CR mimicry Acss2” value stood at 17%, the “CR mimicry Gpd2” value came out at 31% and the “CR mimicry Me1” value came out at 18%. For the same molecule, under setting [2], the “CR mimicry Nampt” value amounted to 87%, the “CR mimicry Parm1” value is 19% and the “CR mimicry Slc2a4” value is on record as 69%. For the same molecule, under setting [3], the “CR mimicry Acaca” value was determined as 59%, the “CR mimicry Acss2” value amounted to 21%, the “CR mimicry Cd68” value was determined as 58% and the “CR mimicry Gpd2” value came out at 93%. Moreover, under setting [3], the “CR mimicry Ifi27I2a” value turned out to be 75%, the “CR mimicry Me1” value turned out to be 24%, the “CR mimicry Nampt” value is 233% and the “CR mimicry Ndufs4” value amounted to 108%. Further, under setting [3], the “CR mimicry Parm1” value is 47% and the “CR mimicry Slc2a4” value worked out at 113%. Besides, the Avg. mimicry under setting [4] is 83%. Further, where the note is “bezafibrate 100 mg/kg diet”, the “Avg. CRMI (CR Mimetic Index, points per gene)” value is 28; the “CMII (average mimicry as fraction of CR x number of significantly changed genes)” value came to 1.4; the “Avg. mimicry” value was found to be 35%. For the same molecule, the “No. of genes significantly changed” value (bezafibrate 100 mg/kg diet, white adipose tissue gene panel) amounted to 4. Also, for the setting “bezafibrate 500 mg/kg diet”, the “Avg. CRMI (CR Mimetic Index, points per gene)” value is reported as 68; the “CMII (average mimicry as fraction of CR x number of significantly changed genes)” value was determined as 2.6; the “Avg. mimicry” value was found to be 38%. For the same molecule, where the note is “bezafibrate 500 mg/kg diet, white adipose tissue gene panel”, the “No. of genes significantly changed” value came to 7. Moreover, under “bezafibrate 5000 mg/kg diet”, the “Avg. CRMI (CR Mimetic Index, points per gene)” value turned out to be 128; the “CMII (average mimicry as fraction of CR x number of significantly changed genes)” value was 8.3; the “Avg. mimicry” value is reported as 83%. Besides, where the note is “bezafibrate 5000 mg/kg diet, white adipose tissue gene panel”, the “No. of genes significantly changed” value was 10. Besides, under setting [5], the “CR mimicry, Acaca (fold change as percentage of the fold change in the CR group)” value is 59%; the “CR mimicry, Acss2 (fold change as percentage of the fold change in the CR group)” value amounted to 21%; the “CR mimicry, Cd68 (fold change as percentage of the fold change in the CR group)” value stood at 58%; the “CR mimicry, Gpd2 (fold change as percentage of the fold change in the CR group)” value came to 93%. Under setting [5], the “CR mimicry, Ifi27I2a (fold change as percentage of the fold change in the CR group)” value came to 75%; the “CR mimicry, Me1 (fold change as percentage of the fold change in the CR group)” value was 24%; the “CR mimicry, Nampt (fold change as percentage of the fold change in the CR group)” value came to 233%; the “CR mimicry, Ndufs4 (fold change as percentage of the fold change in the CR group)” value came to 108%. Under setting [5], the “CR mimicry, Parm1 (fold change as percentage of the fold change in the CR group)” value is 47% and the “CR mimicry, Slc2a4 (fold change as percentage of the fold change in the CR group)” value turned out to be 113%. In addition, the “No. of genes significantly changed” value under setting [6] is listed as 10.
As for `C[N+](C)(C)C[C@H](O)CC(=O)[O-]` [L-carnitine], the “Avg. CRMI” value was determined as 55 and the CMII turned out to be 2.2. In addition, the Avg. mimicry under setting [4] is on record as 31%. Under setting [5], the “CR mimicry, Acaca (fold change as percentage of the fold change in the CR group)” value turned out to be 5%; the “CR mimicry, Gpd2 (fold change as percentage of the fold change in the CR group)” value is 15%; the “CR mimicry, Nampt (fold change as percentage of the fold change in the CR group)” value worked out at 84%; the “CR mimicry, Ndufs4 (fold change as percentage of the fold change in the CR group)” value was found to be 40%. Also, under setting [5], the “CR mimicry, Parm1 (fold change as percentage of the fold change in the CR group)” value came out at 3%; the “CR mimicry, Serpine1 (fold change as percentage of the fold change in the CR group)” value stood at 52%; the “CR mimicry, Slc2a4 (fold change as percentage of the fold change in the CR group)” value is 16%. Also, the “No. of genes significantly changed” value under setting [6] is on record as 7.
Turning to `CN(C)C(=N)N=C(N)N` [Metformin, metformin], the “Avg. CRMI” value was found to be 31 and the CMII is listed as 0.6. The molecule also returned an Avg. mimicry under setting [4] of 16%. In addition, under setting [5], the “CR mimicry, Acaca (fold change as percentage of the fold change in the CR group)” value turned out to be 17%; the “CR mimicry, Gpd2 (fold change as percentage of the fold change in the CR group)” value is 27%; the “CR mimicry, Me1 (fold change as percentage of the fold change in the CR group)” value was 11%; the “CR mimicry, Parm1 (fold change as percentage of the fold change in the CR group)” value came to 10%. Moreover, under setting [6], the “No. of genes significantly changed” value stood at 4.
`O=c1c(O)c(-c2ccc(O)c(O)c2)oc2cc(O)cc(O)c12` [Quercetin, quercetin]: the “Avg. CRMI” value is given as 17 and the CMII came out at 0.4. Further, the Avg. mimicry under setting [4] amounted to 20%. The “ranking of CR mimicry among tested ingredients” value (ranking by mimetic index (CMII), Table 8) is “lowest degree of CR mimicry”. Also, under setting [5], the “CR mimicry, Gpd2 (fold change as percentage of the fold change in the CR group)” value is 5% and the “CR mimicry, Slc2a4 (fold change as percentage of the fold change in the CR group)” value amounted to 35%. The “No. of genes significantly changed” value under setting [6] was 2.
As for `Oc1ccc(C=Cc2cc(O)cc(O)c2)cc1` [Resveratrol, resveratrol], the “Avg. CRMI” value was 35 and the CMII turned out to be 1.38. Besides, the Avg. mimicry under setting [4] came out at 34%. Further, under setting [5], the “CR mimicry, Acaca (fold change as percentage of the fold change in the CR group)” value is on record as 8%; the “CR mimicry, Gpd2 (fold change as percentage of the fold change in the CR group)” value turned out to be 10%; the “CR mimicry, Nampt (fold change as percentage of the fold change in the CR group)” value was found to be 65%; the “CR mimicry, Serpine1 (fold change as percentage of the fold change in the CR group)” value is 55%. Under setting [6], the “No. of genes significantly changed” value came to 4.
